# Assay results from paper PMC4274890 (Emerging Microbes & Infections, 2014).
# Assays:
# SH5190 [1] = assay type: cell-based, A/Shanghai/5190/2013(H7N9)
# SH5190 [2] = assay type: cell-based, A/Shanghai/5190/2013(H7N9); remark: listed apart in the source
SMILES,times more potent than T-705 and ribavirin (SH5190 [1]),plaque mean diameter (SH5190 [2]) [mm]
"CC(=O)Oc1ccccc1C(=O)Nc1ncc([N+](=O)[O-])s1 [NT-300, nitazoxanide]",over 25 times,
CCC(CC)O[C@@H]1C=C(C(=O)O)C[C@H](N)[C@H]1NC(C)=O [Oseltamivir carboxylate],,< 0.1
